Legend:
[1] = Influx with respect to the MTX.; type: functional
Dihydrofolate reductase = target: T1, Dihydrofolate reductase (Mus musculus, UniProt P00375); test: Inhibition of the dihydrofolate reductase enzyme(DHFR) derived from L1210 murine leukemia cells.; type: cell-based
T1 sequence (P00375 whole entry): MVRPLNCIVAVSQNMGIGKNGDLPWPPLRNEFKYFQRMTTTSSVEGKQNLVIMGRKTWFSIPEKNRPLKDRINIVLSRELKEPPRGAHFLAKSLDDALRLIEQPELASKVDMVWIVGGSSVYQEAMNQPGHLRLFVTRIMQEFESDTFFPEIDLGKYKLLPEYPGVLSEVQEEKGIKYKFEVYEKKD

L1210 = test: Concentration required to inhibit 50% growth of L1210 cells in culture.; type: functional, cell-based; conditions: Mus musculus

With CCC(Cc1cnc2nc(N)nc(N)c2c1)c1ccc(C(=O)NC(CCC(=O)O)C(=O)O)cc1 (stereo not given) as the molecule, how does the Relative influx [1] read?
Its Relative influx is 1.32.

Which results are given for Nc1nc(N)c2c3c(cnc2n1)CC(c1ccc(C(=O)NC(CCC(=O)O)C(=O)O)cc1)CC3 (stereo not given)?
Ki (Dihydrofolate reductase): 0.017 nM; IC50 (L1210): 4.5 nM; Relative influx [1]: 3.3

With CC(Cc1cnc2nc(N)nc(N)c2c1)c1ccc(C(=O)NC(CCC(=O)O)C(=O)O)cc1 (stereo not given) as the molecule, how does the Relative influx [1] read?
Its Relative influx is 1.43.

Reference: ChEMBL document CHEMBL1126220, “Synthesis and antifolate properties of 5,10-ethano-5,10-dideazaaminopterin” (J Med Chem, 1992)
